25 substances from publication PMC11584656, “Viral sequence determines HLA-E-restricted T cell recognition of hepatitis B surface antigen” (Nature Communications, 2024) can be followed below.

Assay [1] deals with recombinant human HLA-E*01:03 (heavy chain with β2m), soluble, refolded. Nature of the assay: SPR. (In SPR one partner is held on a chip, and binding of the other changes the refractive index at the surface.)
The target is the same in assay [2]. Nature of the assay: thermal shift assay (refolded pHLA-E*01:03 complexes); Tm of the same pHLA-E*01:03 complexes as in the SPR stability assay (Fig. 1c); triplicate.
The subject of assay [3] is THP-1-E cells (HLA-E*01:01) pulsed with peptide. The assay is described as follows: IFN-γ ELISpot cross-reactivity screen with HLA-E binding peptides. In kind it is cell-based, human. The settings on record: 1 nM ImmTAV, THP-1-E cells pulsed with 10 μg/mL peptide, average of 2 HBV-naïve donor PBMC each in triplicate.
Assay [4] has as its system THP-1-E cells (HLA-E*01:03) pulsed with peptide. Described as above. The class given is cell-based, human. The note with it: 1 nM ImmTAV, THP-1-E cells pulsed with 10 μg/mL peptide, average of 2 HBV-naïve donor PBMC each in triplicate.
The target in assay [5] is T1, HLA-E*01:03 (Homo sapiens, UniProt P13747). In kind it is binding. The note with it: for Tm (°C): Figure 1a source data, 60:1 peptide excess; for Thermal stability Tm (°C): SYPRO Orange, 22-95 °C at 1 °C/min, mean ± SD of triplicates, SD.
Assay [6] deals with single chain β2m-HLA-E*01:01 on transduced cells.
Assay [7] deals with single chain β2m-HLA-E*01:03 on transduced cells.
Assay [8] addresses recombinant human HLA-E*01:03 (heavy chain with β2m), soluble, refolded. Nature of the assay: thermal shift assay (peptide screen).
Assay [9] concerns K562 cells transduced with single chain β2m-HLA-E*01:01. The assay is described as follows: K562 cell pulsing assay, HLA-E surface upregulation (3D12, flow cytometry). In kind it is cell-based, human. (In general: Flow cytometry measures light scatter and fluorescence of single cells or particles in a stream.)
Assay [10] has as its system K562 cells transduced with single chain β2m-HLA-E*01:03. The description is as above. In kind it is cell-based, human.
The target of assay [11] is T1, HLA-E*01:03. The class given is binding. Set-up: made in house. The settings on record: refolded complexes.
In assay [12] the target is T1, HLA-E*01:03. The assay is described as follows: pHLA-E stability (t1/2) by SPR monitoring ILT2 binding. Set-up: made in house. The settings on record: SPR 25 °C.

Like-named read-outs stand apart in the source and are kept apart here.

A1 signal peptide: in [1], the t1/2 of the peptide-HLA-E complex is 2 h. In addition, in assay [2], the Tm of the peptide-HLA-E complex was determined as 49 °C.
As to ALSWRLPLL [Mimetic peptide 1], the “HLA-E*01:01 INF-γ release (SFU ± SD)” value in assay [3] came to 61.6±21.8 SFU. In [4], the “HLA-E*01:03 INF-γ release (SFU ± SD)” value is 54.1±15.6 SFU.
For CIPIPSSWAF [HBV Env peptide 312-321], the “Tm (°C)” value was determined as 42.2 °C on HLA-E*01:03 [5] (replicate 1), 41.7 °C on HLA-E*01:03 [5] (replicate 2) and 42.2 °C at HLA-E*01:03 [5] (replicate 3). At HLA-E*01:03 [5], the “Thermal stability Tm (°C)” value worked out at 42.1±0.3 °C.
Cw3 signal peptide: the t1/2 of the peptide-HLA-E complex in assay [1] worked out at 2 h. The Tm of the peptide-HLA-E complex in assay [2] stood at 49 °C.
For FIIFLFILL [HBV Env peptide 243-251], the “Tm (°C)” value was determined as 38.9 °C on HLA-E*01:03 [5] (replicate 1), 39.2 °C at HLA-E*01:03 [5] (replicate 2) and 39.5 °C at HLA-E*01:03 [5] (replicate 3). Moreover, the “Thermal stability Tm (°C)” value at HLA-E*01:03 [5] was found to be 39.3±0.3 °C.
The corresponding values for GMLPVCPLL [HBV Env peptide 265-273] are 45.1 °C, 45.1 °C, 45.5 °C and 45.3±0.3 °C.
For HBV Env_(371-379) (S3N) peptide …, the peptide concentration at which IFN-γ responses (ELISPOT) were detected: peptide titrated on THP-1-E*01:01 cells, PBMC, 1 nM a09b08 ImmTAV in [6] was determined as 4.9 µg/mL. The same substance had a peptide concentration at which IFN-γ responses (ELISPOT) were detected: peptide titrated on THP-1-E*01:03 cells, PBMC, 1 nM a09b08 ImmTAV in assay [7] of 0.2 µg/mL. Moreover, the t1/2 of the peptide-HLA-E complex in [1] is 0.658 h. In assay [2], the Tm of the peptide-HLA-E complex is 47 °C.
HBV Env_(371-379) peptide …: in assay [7], the peptide concentration at which IFN-γ responses (ELISPOT) were detected: peptide titrated on THP-1-E*01:03 cells, PBMC, 1 nM a09b08 ImmTAV is 8.7 µg/mL. Further, in assay [1], the t1/2 of the peptide-HLA-E complex worked out at 0.112 h. Moreover, the figures for the Tm of the peptide-HLA-E complex in assay [8] and in assay [2] were 47.1 °C and 44 °C, respectively.
For the substance ILPSDAPVL [MTB MmmpL875-83], the “HLA-E*01:01 INF-γ release (SFU ± SD)” value in assay [3] was 52.6±17.39 SFU. Also, the “HLA-E*01:03 INF-γ release (SFU ± SD)” value in assay [4] is listed as 54.8±17.4 SFU.
For ILQRFLPLI [Mimetic peptide 2] the same measures were 60.5±20.8 SFU and 48.6±29.1 SFU.
The corresponding values for IMAPRTLVL [Leader A34] are 55.5±6.8 SFU and 54.5±18.9 SFU.
For the substance LLPRRGPRL [HCV Core], the “HLA-E*01:01 INF-γ release (SFU ± SD)” value in assay [3] turned out to be 61.1±21.8 SFU. The “HLA-E*01:03 INF-γ release (SFU ± SD)” value in assay [4] stood at 60±30.1 SFU.
For QMRPVSRVL [Hsp60 signal peptide] the same measures were 43.8±6.36 SFU and 41.8±9.9 SFU.
Take RLPAKAPLL [Mtb RLPA]: in assay [3], the “HLA-E*01:01 INF-γ release (SFU ± SD)” value was determined as 67.1±12.6 SFU. The “cell surface HLA-E expression after peptide pulsing” value in assay [9] and in [10] was “increased cell surface HLA-E expression” in each case. In addition, the “HLA-E*01:03 INF-γ release (SFU ± SD)” value in assay [4] is given as 72.1±12.8 SFU.
On to RWMCLRRFI [HBV Env peptide 236-244], for which the “Tm (°C)” value turned out to be 37.9 °C on HLA-E*01:03 [5] (replicate 1), 37.9 °C on HLA-E*01:03 [5] (replicate 2) and 38.4 °C at HLA-E*01:03 [5] (replicate 3). The “Thermal stability Tm (°C)” value on HLA-E*01:03 [5] stood at 38.2±0.3 °C.
SSWAFARFL [HBV Env peptide 317-325]: the results for the “Tm (°C)” value at HLA-E*01:03 [5] (replicate 1), on HLA-E*01:03 [5] (replicate 2) and on HLA-E*01:03 [5] (replicate 3) were 40.7 °C, 40.6 °C and 40.7 °C, respectively. In addition, the “Thermal stability Tm (°C)” value on HLA-E*01:03 [5] was 40.7±0.1 °C.
On to VMAPQALLL [Leader Cw16], for which the “HLA-E*01:01 INF-γ release (SFU ± SD)” value in assay [3] worked out at 33.3±16.4 SFU. Moreover, the “HLA-E*01:03 INF-γ release (SFU ± SD)” value in assay [4] is on record as 49.1±19.2 SFU.
The corresponding values for VMAPRALLL [Leader Cw7] are 30.3±12.9 SFU and 44.1±22.1 SFU.
For VMAPRTLFL [Leader G] the same measures were 44.8±19.8 SFU and 48.1±19.7 SFU.
Turning to VMAPRTLLL [Leader A1], the “pHLA-E*01:03 Tm” value on HLA-E*01:03 [11] (thermal shift assay, mean ± SD of triplicates) is 49 °C. The “pHLA-E*01:03 (Tm °C)” value at HLA-E*01:03 [11] (first well of three) stood at 49.62 °C; on HLA-E*01:03 [11] (second well of three), 48.27 °C; on HLA-E*01:03 [11] (third well of three), 48.53 °C. The “HLA-E*01:01 INF-γ release (SFU ± SD)” value in assay [3] stood at 67.8±14.9 SFU. For the same substance, the “pHLA-E*01:03 (t1/2 min)” value is 105 min on HLA-E*01:03 [12] (Run 1), 125 min at HLA-E*01:03 [12] (Run 2) and 127 min at HLA-E*01:03 [12] (Run 3). Also, the “pHLA-E*01:03 t1/2” value at HLA-E*01:03 [12] (rounded value) is 2 h. In assay [4], the “HLA-E*01:03 INF-γ release (SFU ± SD)” value is on record as 65.6±28.4 SFU.
With VMAPRTLVL [Leader A2], the “HLA-E*01:01 INF-γ release (SFU ± SD)” value in assay [3] is on record as 50.5±6.8 SFU. Moreover, the “HLA-E*01:03 INF-γ release (SFU ± SD)” value in assay [4] came out at 64.5±9.8 SFU.
VMAPRTVLL [Leader B7]: the “HLA-E*01:01 INF-γ release (SFU ± SD)” value in [3] is 43.3±7.8 SFU. Moreover, the “HLA-E*01:03 INF-γ release (SFU ± SD)” value in assay [4] was 48.7±7.3 SFU.
For VMPPRTLLL [Leader A80] the same measures were 44.8±8.6 SFU and 61.1±14.3 SFU.
The corresponding values for VTAPRTLLL [Leader B13] are 53±13.4 SFU and 56±17.9 SFU.
For VTAPRTVLL [Leader B15] the same measures were 42.8±13.4 SFU and 40±17.4 SFU.
